The subject of one test is 456 kinases. The test can be described thus: Kinome scan of 456 kinases (scanMAX). It counts as binding. The note with it: screened at 1 μM. The protocol: The kinome profiling of compound 9 was conducted by DiscoveRx. In total, 456 kinases were assayed (scanMAX). For most assays, kinase-tagged T7 phage strains were grown in parallel in 24-well blocks in an E. coli host derived from the BL21 strain. E. coli were grown to log-phase and infected with T7 phage from a frozen stock (multiplicity of infection=0.4) and incubated with shaking at 32° C. until lysis (90-150 minutes). The lysates were centrifuged (6000 g) and filtered (0.2 μm) to remove cell debris. The remaining kinases were produced in HEK-293 cells and subsequently tagged with DNA for qPCR detection. […] The liganded beads were blocked with excess biotin and washed with blocking buffer (SeaBlock (Pierce), 1% BSA, 0.05% Tween 20, 1 mM DTT) to remove unbound ligand and to reduce non-specific phage binding. […] Test compounds were prepared as 40× stocks in 100% DMSO and directly diluted into the assay. All reactions were performed in polypropylene 384-well plates in a final volume of 0.04 ml. […] The kinase concentration in the eluates was measured by qPCR. Compound 114 was screened at 1 μM, and results for primary screen binding interactions were reported as % of control (PoC). PoC=(test compound signal−positive control signal)/(DMSO signal−positive control signal). […] KD values were determined with a standard dose-response curve using the Hill equation.

A further test has as its target T1, Aurora A / TPX2 (1-43) (Homo sapiens, UniProt O14965).
T1 construct: human Aurora A kinase domain (residues 122-403 in the pET24-d vector); His-tag (cleaved yes); made in house; host or cells: E. coli BL21 (DE3) Rosetta (Aurora A); E. coli Bl21 (DE3) (TPX2)
T1 sequence (O14965 122-403): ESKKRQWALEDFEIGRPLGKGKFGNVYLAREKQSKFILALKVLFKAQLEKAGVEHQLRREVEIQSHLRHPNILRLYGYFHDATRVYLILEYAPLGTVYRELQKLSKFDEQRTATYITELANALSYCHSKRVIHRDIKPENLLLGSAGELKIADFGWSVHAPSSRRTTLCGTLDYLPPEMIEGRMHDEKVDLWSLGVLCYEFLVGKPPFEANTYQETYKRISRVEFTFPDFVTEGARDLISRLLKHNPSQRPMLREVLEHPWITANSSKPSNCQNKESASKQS
Briefly: Microscale thermophoresis, Aurora A binding to labeled TPX2 1-43. The following applies: excess 9, three independent measurements.

A further test deals with HeLa cells. Briefly: Mitotic index of HeLa cells. The format is cell-based, human. The protocol: HeLa Kyoto cells were cultured in high-glucose DMEM with GlutaMAX (Life Technologies) media supplemented with 10% fetal calf serum (FCS) in a humidified 5% CO2 incubator at 37° C. For plasmid transfections, cells were seeded at 80-90% confluence. 4 μg of plasmid DNA in 100 μl OptiMEM and 4 μl of Lipofectamine 2000 (Life Technologies) in 100 μl OptiMEM were incubated in parallel for 5 minutes, mixed for 20 minutes and added to each well. All Aurora A clones were constructed using full-length Aurora A as a template with appropriate PCR primer pairs. […] For determining the mitotic index and the chromosome misalignment phenotype, cells were incubated with various concentrations of compounds for 20 h before analysis. […] For rescue experiments, HeLa Kyoto cells were first transfected with GFP-Aurora A, GFP-Aurora AR137A or GFP-Aurora AW277A for 20 h, followed by incubation with 9 for another 20 h before cells were fixed with cold methanol and stained.

For the next test, the target named is T2, GFP-Aurora A-Trp277Ala (Homo sapiens, UniProt O14965, W277A).
T2 construct: All Aurora A clones were constructed using full-length Aurora A as a template; expressed in transfected cells; host or cells: HeLa Kyoto
T2 sequence (O14965 1-403 W277A): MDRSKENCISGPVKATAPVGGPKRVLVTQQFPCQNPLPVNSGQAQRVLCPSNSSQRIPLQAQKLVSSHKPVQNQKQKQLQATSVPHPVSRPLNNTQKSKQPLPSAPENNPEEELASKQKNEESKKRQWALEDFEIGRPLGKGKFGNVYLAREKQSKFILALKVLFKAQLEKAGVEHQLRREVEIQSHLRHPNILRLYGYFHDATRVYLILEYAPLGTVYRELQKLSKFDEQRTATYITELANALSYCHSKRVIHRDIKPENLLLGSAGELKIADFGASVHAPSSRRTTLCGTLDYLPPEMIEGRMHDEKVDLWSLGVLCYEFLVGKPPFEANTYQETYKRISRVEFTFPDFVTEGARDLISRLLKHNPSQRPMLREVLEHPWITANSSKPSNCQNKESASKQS
Briefly: Phenotypic rescue, cells expressing mutant Aurora A. It counts as cell-based. On the procedure:
HeLa Kyoto cells were cultured in high-glucose DMEM with GlutaMAX (Life Technologies) media supplemented with 10% fetal calf serum (FCS) in a humidified 5% CO2 incubator at 37° C. For plasmid transfections, cells were seeded at 80-90% confluence. 4 μg of plasmid DNA in 100 μl OptiMEM and 4 μl of Lipofectamine 2000 (Life Technologies) in 100 μl OptiMEM were incubated in parallel for 5 minutes, mixed for 20 minutes and added to each well. All Aurora A clones were constructed using full-length Aurora A as a template with appropriate PCR primer pairs. […] GFP-Aurora AR137A and GFP-Aurora AW277A were engineered using a site directed mutagenesis kit (Agilent Technologies, no. 210515) with appropriate primers. For determining the mitotic index and the chromosome misalignment phenotype, cells were incubated with various concentrations of compounds for 20 h before analysis. Cells were likewise treated with 0.25 μM MLN8237 (Selleckchem, no. S1133) or 5 μM ZM447439 (Selleckchem, no. S1103). For flow cytometry analysis, 50 nM MLN8037 and 2.5 μM ZM447439 were used. […] To assess the impact of compound 9 on cell cycle progression, DNA content was analyzed after propidium iodide staining using FACS (BD Accuri C6 flow cytometer).

Structures are written as SMILES.

Protocol for Aurora A / TPX2 (1-43): TPX2 was labelled using the Monolith NT.115 protein labelling kit RED (NanoTemper Technologies). The labelling was performed according to the manufacturer's instructions in the supplied labelling buffer applying a concentration of 44 μM peptide at room temperature for 30 min. Labelled TPX2 was adjusted to 400 nM with final buffer and 0.05% Tween-20 (NanoTemper Technologies). Aurora A kinase with or without ligand was dissolved in final buffer supplemented with 0.05% Tween-20, and a series of 12 dilutions (1:1) was prepared in the identical buffer, keeping the DMSO/ligand concentration constant (final concentrations 0.5% and 125 μM, respectively). Final protein concentrations were between 4.4 nM and 150 μM. […] Thermophoresis was measured at room temperature with 5 s/30 s/5 s laser off/on/off times. […] Data of three independent measurements were analyzed (NT.Analysis software, version 1.5.41, NanoTemper Technologies) using the thermophoresis signal after 10 sec. Points measured above 4.7 μM Aurora A were rejected.

In the case of `CCc1ccc(N=C2SC(=Cc3ccnc(Nc4ccc(C(=O)O)cn4)c3)C(=O)N2C)cc1` [Compound 9], the kinome selectivity result with 456 kinases is listed as “remarkably selective”. Also, the “binding of Aurora to labeled TPX2 1-43 in the presence of inhibitor” value at Aurora A / TPX2 (1-43) is given as “abolished”. In addition, the mitotic index in the test with HeLa cells (4 μM) is around 15%; in the test on HeLa cells (10 μM), around 25%; in the test with HeLa cells (25 μM), around 40%. Further, the “sensitivity of GFP-Aurora A-Trp277Ala to inhibitor” value at GFP-Aurora A-Trp277Ala is “insensitive”.

The values above are taken from US20190352297A1, “SELECTIVE AURORA A KINASE INHIBITORS” (UNIVERSITAT BERN, priority 2017, published 2019).
